Values after ≈ are worked out from the molar mass of the structure shown.
Columns and labels:
C. glabrata = test: Minimal fungicidal concentration (MFC) against C. glabrata; assay type: cell-based, Candida glabrata; settings: Nakaseomyces glabratus; 24 h at 37° C. in PBS; less than 1% survival relative to DMSO control
Procedure: (§1) Two-fold dilution series of the compounds were prepared in 50% DMSO. 5 μl of these series were added to 95 μl PBS buffer inoculated with 1/500 cells of an overnight culture of either C. albicans, C. glabrata or C. krusei (final DMSO conc 2%). 2% DMSO served as negative control. After 24 h incubation at 37° C. of these cultures with the antifungal compounds in PBS, the cell cultures were plated on YPD agar and colony forming units (CFUs) were determined after incubation of the plates for 2 days. MFC was determined as the minimal concentration of a compound resulting in less than 1% survival of the yeast culture relative to the DMSO control.

C. albicans SC5314 = test: Minimal fungicidal concentration (MFC) against C. albicans; assay type: cell-based; settings: Candida albicans, 24 h at 37° C. in PBS, less than 1% survival relative to DMSO control
Procedure: as §1

Fusarium oxysporum = test: Minimal inhibitory concentration (MIC) against F. oxysporum; assay type: cell-based; settings: 24 h at 25° C. in ½ PDB, minimal concentration that inhibits growth
Procedure: (§2) To determine the MIC and MFC of a compound against Aspergillus flavus, Fusarium oxysporum or F. culmorum, a 2-fold dilution series of the compounds of the invention was incubated with the corresponding spore suspension in ½ PDB (potato dextrose broth, Difco) (2×10^4 spores/ml). […] MFC was determined as the minimal concentration of a compound resulting in less than 1% survival of the fungal culture relative to the DMSO control.

Aspergillus flavus = test: Minimal inhibitory concentration (MIC) against A. flavus; assay type: cell-based; settings: 24 h at 25° C. in ½ PDB, minimal concentration that inhibits growth
Procedure: as §2

A. fumigatus = test: Minimal inhibitory concentration (MIC) against A. fumigatus; assay type: cell-based; settings: Aspergillus fumigatus; minimal concentration that inhibits growth

Row | Structure (SMILES) | MIC (Fusarium oxysporum) | MIC (Aspergillus flavus) | MIC (A. fumigatus) | MFC (C. glabrata) | MFC (C. albicans SC5314)
1 | CCN1CC(C)(C)OC(=O)C1CC(=O)NCc1cccc(C)c1 (stereo not shown) [CPD-70, 2-(4-ethyl-6,6-dimethyl-2-oxomorpholin-3-yl)-N-(3-methylbenzyl)acetamide] | – | – | – | – | 25 µg/mL (≈ 78.5 µM)
2 | CCN1CC(C)(C)OC(=O)C1CC(=O)NCc1ccccc1OC (stereo not shown) [CPD-79, 2-(4-ethyl-6,6-dimethyl-2-oxomorpholin-3-yl)-N-(2-methoxybenzyl)acetamide] | > 25 µg/mL | > 25 µg/mL | 12.5 µg/mL (≈ 37.4 µM) | 25 µg/mL (≈ 74.8 µM) | > 25 µg/mL
3 | CCN1CC(C)(C)OC(=O)C1CC(=O)NCc1cccc(OC)c1 (stereo not shown) [CPD-80, 2-(4-ethyl-6,6-dimethyl-2-oxomorpholin-3-yl)-N-(3-methoxybenzyl)acetamide] | > 25 µg/mL | > 25 µg/mL | 6.25 µg/mL (≈ 18.7 µM) | 12.5 µg/mL (≈ 37.4 µM) | 25 µg/mL (≈ 74.8 µM)
4 | CCN1CC(C)(C)OC(=O)C1CC(=O)NCc1ccc(OC)cc1 (stereo not shown) [CPD-72, 2-(4-ethyl-6,6-dimethyl-2-oxomorpholin-3-yl)-N-(4-methoxybenzyl)acetamide] | – | – | – | – | 25 µg/mL (≈ 74.8 µM)
5 | CCN1CC(C)(C)OC(=O)C1CC(=O)NCc1ccccc1-c1ccccc1 (stereo not shown) [CPD-81, N-(biphenyl-2-ylmethyl)-2-(4-ethyl-6,6-dimethyl-2-oxomorpholin-3-yl)acetamide] | 25 µg/mL (≈ 65.7 µM) | 25 µg/mL (≈ 65.7 µM) | 3.12 µg/mL (≈ 8.21 µM) | 12.5 µg/mL (≈ 32.9 µM) | 12.5 µg/mL (≈ 32.9 µM)
6 | CCN1CC(C)(C)OC(=O)C1CC(=O)NCc1ccc(C)cc1 (stereo not shown) [CPD-76, 2-(4-ethyl-6,6-dimethyl-2-oxomorpholin-3-yl)-N-(4-methylbenzyl)acetamide] | > 25 µg/mL | 25 µg/mL (≈ 78.5 µM) | 3.12 µg/mL (≈ 9.81 µM) | 6.25 µg/mL (≈ 19.6 µM) | 25 µg/mL (≈ 78.5 µM)
7 | CCN1CC(c2ccccc2)OC(=O)C1CC(=O)Nc1ccc(C(C)C)cc1 (stereo not shown) [CPD-01, 2-(4-ethyl-2-oxo-6-phenylmorpholin-3-yl)-N-(4-isopropylphenyl)acetamide] | – | 12.5 µg/mL (≈ 32.9 µM) | 0.8 µg/mL (≈ 2.1 µM) | 12.5 µg/mL (≈ 32.9 µM) | 12.5 µg/mL (≈ 32.9 µM)
8 | CCN1CC(C)(C)OC(=O)C1CC(=O)NCc1cccc(-c2ccccc2)c1 (stereo not shown) [CPD-82, N-(biphenyl-3-ylmethyl)-2-(4-ethyl-6,6-dimethyl-2-oxomorpholin-3-yl)acetamide] | 25 µg/mL (≈ 65.7 µM) | 25 µg/mL (≈ 65.7 µM) | 3.12 µg/mL (≈ 8.21 µM) | 12.5 µg/mL (≈ 32.9 µM) | 12.5 µg/mL (≈ 32.9 µM)
9 | CCN1CC(C)(C)OC(=O)C1CC(=O)NCc1ccc(Cl)c(Cl)c1 (stereo not shown) [CPD-50, N-(3,4-dichlorobenzyl)-2-(4-ethyl-6,6-dimethyl-2-oxomorpholin-3-yl)acetamide] | 25 µg/mL (≈ 67 µM) | 6.25 µg/mL (≈ 16.7 µM) | 1.6 µg/mL (≈ 4.29 µM) | 3.12 µg/mL (≈ 8.36 µM) | 12.5 µg/mL (≈ 33.5 µM)
10 | CCN1CC(C)(C)OC(=O)C1CC(=O)NCc1ccc(-c2ccccc2)cc1 (stereo not shown) [CPD-73, N-(biphenyl-4-ylmethyl)-2-(4-ethyl-6,6-dimethyl-2-oxomorpholin-3-yl)acetamide] | – | – | – | – | 25 µg/mL (≈ 65.7 µM)
11 | CCN1CC(C)(C)OC(=O)C1CC(=O)NCc1ccccc1Cl (stereo not shown) [CPD-57, N-(2-chlorobenzyl)-2-(4-ethyl-6,6-dimethyl-2-oxomorpholin-3-yl)acetamide] | – | – | – | – | 25 µg/mL (≈ 73.8 µM)
12 | CCN1CC(C)(C)OC(=O)C1CC(=O)NCCC(C)(C)C (stereo not shown) [CPD-38, N-(3,3-dimethylbutyl)-2-(4-ethyl-6,6-dimethyl-2-oxomorpholin-3-yl)acetamide] | 50 µg/mL (≈ 168 µM) | 50 µg/mL (≈ 168 µM) | 50 µg/mL (≈ 168 µM) | 12.5 µg/mL (≈ 41.9 µM) | 25 µg/mL (≈ 83.8 µM)
13 | CCN1CC(C)(C)OC(=O)C1CC(=O)NCc1ccc(C(F)(F)F)cc1 (stereo not shown) [CPD-71, 2-(4-ethyl-6,6-dimethyl-2-oxomorpholin-3-yl)-N-(4-(trifluoromethyl)benzyl)acetamide] | – | – | – | – | 25 µg/mL (≈ 67.1 µM)
14 | CCN1CC(C)(C)OC(=O)C1CC(=O)NCc1ccco1 (stereo not shown) [CPD-23, 2-(4-ethyl-6,6-dimethyl-2-oxomorpholin-3-yl)-N-(furan-2-ylmethyl)acetamide] | 50 µg/mL (≈ 170 µM) | 50 µg/mL (≈ 170 µM) | 25 µg/mL (≈ 84.9 µM) | > 50 µg/mL | 50 µg/mL (≈ 170 µM)
15 | CCN1C[C@H](c2ccccc2)OC(=O)C1CC(=O)Nc1ccc(C(C)C)cc1 (stereo partly drawn) [CPD-02, 2-((6S)-4-ethyl-2-oxo-6-phenylmorpholin-3-yl)-N-(4-isopropylphenyl)acetamide] | – | 6.25 µg/mL (≈ 16.4 µM) | 0.8 µg/mL (≈ 2.1 µM) | 12.5 µg/mL (≈ 32.9 µM) | 12.5 µg/mL (≈ 32.9 µM)
16 | CCN1CC(C)(C)OC(=O)C1CC(=O)NCc1ccccc1C (stereo not shown) [CPD-69, 2-(4-ethyl-6,6-dimethyl-2-oxomorpholin-3-yl)-N-(2-methylbenzyl)acetamide] | – | – | – | – | 25 µg/mL (≈ 78.5 µM)
17 | CCN1CC(C)(C)OC(=O)C1CC(=O)NC1CCc2ccccc21 (stereo not shown) [CPD-09, N-(2,3-dihydro-1H-inden-1-yl)-2-(4-ethyl-6,6-dimethyl-2-oxomorpholin-3-yl)acetamide] | > 50 µg/mL | > 50 µg/mL | 50 µg/mL (≈ 151 µM) | 50 µg/mL (≈ 151 µM) | 25 µg/mL (≈ 75.7 µM)
18 | CC(C)c1ccc(NC(=O)CC2C(=O)OC(C)(C)CN2S(C)(=O)=O)cc1 (stereo not shown) [CPD-75, 2-(6,6-dimethyl-4-(methylsulfonyl)-2-oxomorpholin-3-yl)-N-(4-isopropylphenyl)acetamide] | > 25 µg/mL | > 25 µg/mL | 12.5 µg/mL (≈ 32.7 µM) | > 25 µg/mL | > 25 µg/mL
19 | CCN1CC(C)(C)OC(=O)C1CC(=O)NCc1cccc(C(F)(F)F)c1 (stereo not shown) [CPD-78, 2-(4-ethyl-6,6-dimethyl-2-oxomorpholin-3-yl)-N-(3-(trifluoromethyl)benzyl)acetamide] | > 25 µg/mL | > 25 µg/mL | 6.25 µg/mL (≈ 16.8 µM) | 12.5 µg/mL (≈ 33.6 µM) | 25 µg/mL (≈ 67.1 µM)

More lines, main results first:

Row | MIC (Fusarium oxysporum) | MIC (Aspergillus flavus) | MIC (A. fumigatus) | Structure (SMILES) | MFC (C. glabrata) | MFC (C. albicans SC5314)
20 | 25 µg/mL (≈ 67.1 µM) | 25 µg/mL (≈ 67.1 µM) | 3.12 µg/mL (≈ 8.39 µM) | CCN1CC(C)(C)OC(=O)C1CC(=O)NCc1ccccc1C(F)(F)F (stereo not shown) [CPD-77, 2-(4-ethyl-6,6-dimethyl-2-oxomorpholin-3-yl)-N-(2-(trifluoromethyl)benzyl)acetamide] | 12.5 µg/mL (≈ 33.6 µM) | 25 µg/mL (≈ 67.1 µM)
21 | > 50 µg/mL | > 50 µg/mL | 50 µg/mL (≈ 195 µM) | CCCNC(=O)CC1C(=O)OC(C)(C)CN1CC (stereo not shown) [CPD-36, 2-(4-ethyl-6,6-dimethyl-2-oxomorpholin-3-yl)-N-propylacetamide] | > 50 µg/mL | 25 µg/mL (≈ 97.5 µM)
22 | – | 6.25 µg/mL (≈ 19.6 µM) | 0.8 µg/mL (≈ 2.51 µM) | CCN1C[C@H](C)OC(=O)C1CC(=O)Nc1ccc(C(C)C)cc1 (stereo partly drawn) [CPD-03, 2-((6S)-4-ethyl-6-methyl-2-oxomorpholin-3-yl)-N-(4-isopropylphenyl)acetamide] | 6.25 µg/mL (≈ 19.6 µM) | 12.5 µg/mL (≈ 39.3 µM)
23 | > 50 µg/mL | > 50 µg/mL | > 50 µg/mL | CCN1CC(C)(C)OC(=O)C1CC(=O)NC1CCN(Cc2ccccc2)CC1 (stereo not shown) [CPD-14, N-(1-benzylpiperidin-4-yl)-2-(4-ethyl-6,6-dimethyl-2-oxomorpholin-3-yl)acetamide] | > 50 µg/mL | 25 µg/mL (≈ 64.5 µM)
24 | – | 12.5 µg/mL (≈ 32.9 µM) | 0.8 µg/mL (≈ 2.1 µM) | CCN1C[C@@H](c2ccccc2)OC(=O)C1CC(=O)Nc1ccc(C(C)C)cc1 (stereo partly drawn) [CPD-04, 2-((6R)-4-ethyl-2-oxo-6-phenylmorpholin-3-yl)-N-(4-isopropylphenyl)acetamide] | 6.25 µg/mL (≈ 16.4 µM) | 12.5 µg/mL (≈ 32.9 µM)
25 | > 50 µg/mL | 50 µg/mL (≈ 164 µM) | 12.5 µg/mL (≈ 41.1 µM) | CCN1CC(C)(C)OC(=O)C1CC(=O)NCc1ccccc1 (stereo not shown) [CPD-12, N-benzyl-2-(4-ethyl-6,6-dimethyl-2-oxomorpholin-3-yl)acetamide] | 25 µg/mL (≈ 82.1 µM) | 12.5 µg/mL (≈ 41.1 µM)
26 | > 50 µg/mL | > 50 µg/mL | 25 µg/mL (≈ 84.4 µM) | CCN1CC(C)(C)OC(=O)C1CC(=O)NCC(F)(F)F (stereo not shown) [CPD-39, 2-(4-ethyl-6,6-dimethyl-2-oxomorpholin-3-yl)-N-(2,2,2-trifluoroethyl)acetamide] | > 50 µg/mL | 50 µg/mL (≈ 169 µM)
27 | > 50 µg/mL | > 50 µg/mL | 12.5 µg/mL (≈ 36 µM) | CCN1CC(C)(C)OC(=O)C1CC(=O)Nc1ccc2scnc2c1 (stereo not shown) [CPD-10, N-(benzo[d]thiazol-5-yl)-2-(4-ethyl-6,6-dimethyl-2-oxomorpholin-3-yl)acetamide] | > 50 µg/mL | > 50 µg/mL
28 | > 50 µg/mL | 50 µg/mL (≈ 161 µM) | 25 µg/mL (≈ 80.5 µM) | CCN1CC(C)(C)OC(=O)C1CC(=O)NCC1CCCCC1 (stereo not shown) [CPD-47, N-(cyclohexylmethyl)-2-(4-ethyl-6,6-dimethyl-2-oxomorpholin-3-yl)acetamide] | 6.25 µg/mL (≈ 20.1 µM) | 25 µg/mL (≈ 80.5 µM)
29 | – | 6.25 µg/mL (≈ 19.6 µM) | 0.8 µg/mL (≈ 2.51 µM) | CCN1C[C@@H](C)OC(=O)C1CC(=O)Nc1ccc(C(C)C)cc1 (stereo partly drawn) [CPD-05, 2-((6R)-4-ethyl-6-methyl-2-oxomorpholin-3-yl)-N-(4-isopropylphenyl)acetamide] | 6.25 µg/mL (≈ 19.6 µM) | 12.5 µg/mL (≈ 39.3 µM)
30 | > 50 µg/mL | 25 µg/mL (≈ 78.5 µM) | 6.25 µg/mL (≈ 19.6 µM) | CCN1CC(C)(C)OC(=O)C1CC(=O)NCCc1ccccc1 (stereo not shown) [CPD-18, 2-(4-ethyl-6,6-dimethyl-2-oxomorpholin-3-yl)-N-phenethylacetamide] | 50 µg/mL (≈ 157 µM) | 25 µg/mL (≈ 78.5 µM)

Reference: patent US20120252801A1, “ANTIFUNGAL COMPOUNDS” (Katholieke Universiteit Leuven, K.U.Leuven R&D, priority 2009, published 2012)
